Counter-ions that a name gives are not always drawn. Like-named read-outs stand apart in the source and are kept apart here.
How the values were obtained:
[1] = in vitro release from dialysis bag into saline; type: physicochemical
[2] = stated as background, no test described, cited from earlier work
cats = conditions: previous data; cited from earlier work

Row | SMILES | solubility in water / aqueous solutions (in words), known forms [2] | further results
1 | CNCCC(Oc1ccc(C(F)(F)F)cc1)c1ccccc1 (centres unmarked) [fluoxetine base formulation, Fluoxetine] |  | time over which the formulation was released in vitro ([1]; 100 mg/ml in 10% propylene glycol in glycerol formal, dialysis technique): about 160 hrs
2 | CN(C)C1C(O)=C(C(N)=O)C(=O)[C@@]2(O)C(O)=C3C(=O)c4c(O)cccc4[C@@](C)(O)C3C(O)C12 (some centres unmarked) [hydrochloride salt of oxytetracycline, Oxytetracycline] | readily soluble in water | 
3 | COCCc1ccc(OCC(O)CNC(C)C)cc1 (centres unmarked) [metoprolol base, Metoprolol] |  | in vitro release rate (in words) ([1]; dialysis bag into saline): diffused off rapidly
4 | COCCc1ccc(OCC(O)CNC(C)C)cc1 (centres unmarked) [metoprolol succinate, Metoprolol] | highly soluble in water | 
5 | CC[C@H]1OC(=O)C[C@@H](O)[C@H](C)[C@@H](OC2OC(C)C(O)C(N(C)C)C2O)[C@@H](CCN2C[C@@H](C)C[C@H](C)C2)C[C@@H](C)C(=O)/C=C/C(C)=C/[C@@H]1COC1OC(C)C(O)C(OC)C1OC (some centres unmarked) [phosphate salt of tilmicosin, Tilmicosin] |  | dosage that could be fatal to cats (cats): 25 mg/kg; solubility in water / aqueous solutions (in words), known forms ([2]; listed as tilmicosin phosphate salt): highly soluble
6 | CC[C@H]1OC(=O)C[C@@H](O)[C@H](C)[C@@H](OC2OC(C)C(O)C(N(C)C)C2O)[C@@H](CCN2C[C@@H](C)C[C@H](C)C2)C[C@@H](C)C(=O)/C=C/C(C)=C/[C@@H]1COC1OC(C)C(O)C(OC)C1OC (some centres unmarked) [tilmicosin basic form, Tilmicosin] | moderately soluble | 
7 | CC[C@H]1OC(=O)C[C@@H](O)[C@H](C)[C@@H](OC2OC(C)C(O)C(N(C)C)C2O)[C@@H](CCN2C[C@@H](C)C[C@H](C)C2)C[C@@H](C)C(=O)/C=C/C(C)=C/[C@@H]1COC1OC(C)C(O)C(OC)C1OC (some centres unmarked) [tilmicosin chloride salt, Tilmicosin] | highly soluble | 

From US6946137B2, “Methods for the controlled delivery of pharmacologically active compounds” (IDEXX Laboratories, Inc., priority 2001, dated 2005)
